pIC50: −log10 of the molar value. Several values for one entry are separate records, joined by “and”; a condition that tells them apart may be missing. Equal entries are not always repeated. Where two headings read alike, the source gives them in different places.

For data set [1] the following is noted: mouse, in vivo.
Excerpt: The efficacies of M4N and G4N against HSV-2 in a mouse vaginal model system were also examined. Progestin-treated female CF-1 mice (10 per group) were infected with HSV-2 in the absence or presence of G4N (in PBS), P4N (in PBS), or M4N in Vaseline (23). At the end of three days, the vaginal lavages were collected from the washings of the vagina regions. The status of the vaginal HSV-2 infection and replication were examined by their cytopathic effects on cultured human foreskin fibroblast cells. Monitoring and scoring were carried out by three persons independently.
For the next data set, the system named is HSV-2. The experiment in a line: Mouse vaginal model of HSV-2 infection. Type of data set: in vivo, female CF-1 mice. From the text:
P4N was also found to be quite effective.

Data set [2] relates to acyclovir-resistant strains of HSV-1. As to the kind of experiment: Inhibition of acyclovir-resistant strains of HSV-1. Type of data set: cell-based. From the text:
Because the inhibitory mechanism of this class of compounds is completely distinct from the antiviral mechanism of nucleoside analogue agents, there is little possibility of cross-resistance between these two classes of drugs.

Data set [3] addresses deletion mutant HIV-1 integrase (IN^50-212) (Human immunodeficiency virus type 1 group M subtype B, UniProt P04585). The experiment in a line: Disintegration assay. Type of data set: biochemical. The settings on record: IN^50-212 core domain; equal efficacy with wild type. On the procedure:
(§1) To determine whether M522 and M532 are acting against the catalytic core domain specifically, disintegration assay was tested using deletion mutant IN containing only the core domain of HIV integrase. Such deletion mutant is defective for normal integration, but it is capable of catalyzing a reversal of the forward reaction, termed “disintegration”. The disintegration reaction can be assayed by using a deletion mutant HIV-1 integrase (IN^50-212) which lacks both the amino terminal zinc binding and the carboxyl terminal DNA binding domains but remains active in this assay, whereas such truncated IN loses activity in the 3′-processing and joining (strand transfer) assays. So, disintegration assay can be used to probe the site of drug-enzyme binding.

Data set [4] addresses wild type HIV-1 integrase (Human immunodeficiency virus type 1 group M subtype B, UniProt P04585). As to the kind of experiment: Disintegration assay. Type of data set: biochemical. As to conditions: equal efficacy with deletion mutant. Here is the method:
as §1

A further data set deals with HIV. The experiment in a line: HIV entry in H9 cells. Type of data set: cell-based. The settings on record: compound by itself. From the text:
(§2) a. Salvia genus of Labiaceae family contains approximately 1000 species. 78 of these are distributed in different regions in China. […] An INi search was established based on an assay-guided purification procedure utilizing different concentrations of methanol, propanol, a two-layer extraction system (low salt water/butanol), and a high resolution inverted phase HPLC (Sperisorb OD S-2).

Data set [5] concerns HIV-1. As to the kind of experiment: Acute HIV-1 infection of H9 cells. Type of data set: cell-based. The settings on record: Human immunodeficiency virus 1.
Excerpt: as §2

The next data set addresses T1, reverse transcriptase (Human immunodeficiency virus type 1 group M subtype B, UniProt P04585).
T1 construct: endogenous in cells; host or cells: HIV-infected cells (H9 cells named in the same paragraph)
The experiment in a line: Reverse transcriptase activity and viral DNA levels in infected cells. Type of data set: cell-based, HIV.
Excerpt: as §2

For data set [6], the system named is HIV-1RTMF (AZT-resistant virus). As to the kind of experiment: HIV replication in infected H9 cells, HIV/p24 monoclonal antibody assay. Type of data set: cell-based. Here is the method:
(§3) The inhibitory effect of M522 and M532 against HIV replication was further examined using 5 different strains of HIV-1, drug resistant and primary isolates in the presence of a variety of drug concentrations in infected H9 cells.
A series of drug concentrations ranging from 1.25 μg/ml to 160 μg/ml were used for testing the cytotoxicity of M522 and M532 in H9 cells, using the MTT assay to determine the viability of H9 cells in culture.

In another data set the test system is HIV-1RTMF. As to the kind of experiment: Drug combination study in H9 cells infected with HIV-1RTMF, p24 assay. Type of data set: cell-based. From the text:
We tested drug combinations against two different cells infected with laboratory strain of HIV-1 RTMF. For these drug combinational studies, both the H9 cells and human PBMC have been used. We first tested how our inhibitors affect one specific strain of HIV which is resistant to drug against RT (HIV-1RTMF). Briefly H9 (1×10^5/ml) were infected with HIV-1RTMF strain with a multiplicity of infection of 0.1. These cells were further tested with three drugs, M522, Gen-1 and G4N, either in combination or separately (8, 10, 21B). After 4-day incubation at 37° C., H9 cells were subcultured with fresh culture medium containing appropriate concentrations 0, 1.25, 2.5, 5, 10, 20, 40 and 80 μM of each of the drugs, or of a combination of all three of the drugs, each at the indicated concentration. The inhibition for HIV-1 by these combinations of drugs was examined using p24 assay after 8 days.
(§4) Similarly, PBMC cells were isolated from a healthy blood sample and these cells were stimulated by PHA and IL-2. PBMC (5×10^6/ml) were infected with HIV-1RTMF. The cells were treated with three combinations of drugs, M522, Gen-1 and G4N. Fresh media and drugs were added after 4 days with drug concentrations 0, 1.25, 2.5, 5, 10, 20, 40 and 80 μM. The inhibition for HIV-1 by these combinations of drugs was also examined by using p24 assay after 8 days. […] In comparison, cytotoxicity for the three drugs combined to H9 cells was also analyzed using an MTT assay.

The next data set has as its system H9 cells. Type of data set: cell-based. As to conditions: human, 192 h. Here is the method:
A series of drug concentrations ranging from 1.25 μg/ml to 160 μg/ml were used for testing the cytotoxicity of M522 and M532 in H9 cells, using the MTT assay to determine the viability of H9 cells in culture. […] In fact, the drug-protected, HIV-infected H9 cells appeared to be morphologically identical to the uninfected control cells (6).
as §4

The target in another data set is HIV-1 integrase (Human immunodeficiency virus type 1 group M subtype B, UniProt P04585). As to the kind of experiment: HIV-1 integrase catalytic activity of 3'-joining to the target DNA. Type of data set: biochemical.
Excerpt: as §2

The test system of a further data set is HIV-1IIIBA17 variant. The experiment in a line: HIV replication in infected H9 cells, HIV/p24 monoclonal antibody assay. Type of data set: cell-based. The settings on record: Human immunodeficiency virus 1, H9.
Excerpt: as §3

In a further data set the test system is HIV-1MN. The description is as above. Type of data set: cell-based. As to conditions: Human immunodeficiency virus 1.
Excerpt: as §3

In another data set the test system is HIV-1IIIB. The description is as above. As to conditions: Human immunodeficiency virus 1. Type of data set: cell-based.
Excerpt: as §3

The test system of data set [7] is HIV-1L1OR/M461/L63P.V82T/184V (protease inhibitor resistant virus). The description is as above. Type of data set: cell-based. As to conditions: Human immunodeficiency virus 1, H9.
Excerpt: as §3

A further data set concerns HSV-1. The experiment in a line: Dorsal cutaneous guinea pig model of HSV-1 infection. Type of data set: in vivo. On the procedure:
M4N and G4N were tested for their abilities to prevent HSV-1 infection in two animal model systems. The dorsal cutaneous guinea pig model system is a well-established model for HSV-1 infection that has been used in several studies to comparatively assess the potential efficacy of different topical formulations for treatment of herpes labialis. Straten M V, Carrasco D, Lee P, Tyring S K, Arch. Dermatol 137, 1232-1235 2001.

Data set [8] relates to HIV Sp1 enhancer sequence. The experiment in a line: Binding to Sp1 enhancer sequence by ethidium displacement. As to conditions: excitation 517 nm, emission 596 nm. From the text:
The mechanism underlying the antiviral action for NDGA derivatives was largely unknown before 1995. In 1995, Huang's group first reported a molecular study on 3′-O-methyl NDGA (FIG. 11, Mal 4)(15) isolated from creosote bush (Larrea tridentate) (16,3). […] NDGA derivatives interfere with the binding of transcription factor Sp1 to the promoter of the HIV proviral template. The target of Mal.4 is mapped to nucleotides −87 to −40, the Sp1 binding sites of the HIV long terminal repeat (LTR). […] However, large preparations of such NDGA derivatives from plant sources are labor intensive and costly. In anticipation of the possible clinical use of lignans in controlling Sp1-regulated viral and tumor growth in humans, nine different methylated NDGAs and several water soluble NDGA derivatives were synthesized chemically in large quantities with low cost (17, 18, 26, FIG. 11). Unsubstituted NDGA was used as the parent substrate. […]

Data set [9] in a line: Topical toxicity in guinea pigs. Type of data set: in vivo.
In data set [10] the test system is HIV-1. As to conditions: read-out: inhibited HIV replication (IC90); FIG. 5.
Data set [11] concerns HIV-1.

Regarding `COc1ccc(C[C@@H](C)[C@@H](C)Cc2ccc(OC)c(OC)c2)cc1OC` [M4N, tetra-O-methyl NDGA], the toxicity result in data set [1] is “no toxicity”. Further, in the data set with HSV-2 (20 mg/ml in Vaseline), the “infection in the other 4 mice” value is listed as “very little infection”; the “mice fully infected, out of 8” value is 4; the “score of the fully infected mice” value is on record as 3-4. Also, the “efficacy against acyclovir-resistant strains” value in data set [2] was “retains complete efficacy”.

On to `O=C(/C=C/c1ccc(O)c2c1[C@H](C(=O)O)[C@@H](c1ccc(O)c(O)c1)O2)O[C@H](Cc1ccc(O)c(O)c1)C(=O)O` [M522, lithospermic acid], for which the inhibition of disintegration result in [3] and in data set [4] was “inhibited” each time. For the same molecule, the “prevention of HIV entry” value in the data set with HIV was “Neither M522 nor M532 by itself prevents HIV entry”. Moreover, the pIC50 in the data set with HIV-1 [5] was 5.70; in the data set on HIV-1RTMF (Human immunodeficiency virus 1, H9, 192 h), 5.22 to 5.40; at HIV-1 integrase, 6.32. Besides, on reverse transcriptase (following drug treatment), the “levels of intracellular strong stop and full-length viral DNA” value is given as “remained unchanged”. Also, the “inhibition of reverse transcriptase activity” value on reverse transcriptase (infected cells) is reported as “no inhibition of reverse transcriptase activity”. In addition, in data set [6] (H9 cells infected with HIV-1RTMF in the presence of drug), the syncytia formation result was “syncytia formation was prevented”. The half-maximal inhibitory concentration (IC50) in data set [6] (Human immunodeficiency virus 1, H9) is 2.5 µg/mL and 4.6 µM; with HIV-1IIIBA17 variant it was 1.1 µg/mL and 2 µM; in the data set on HIV-1MN it was 16.7 µM and 9 µg/mL; in the data set on HIV-1IIIB it was 11 µg/mL and 20.4 µM; in data set [7] it was 6 µg/mL and 11.1 µM. In the data set on H9 cells, the “CC100 (highest concentration tested, cells remained viable)” value stood at 160 µg/mL.

Turning to `C[C@H](Cc1ccc(OC(=O)CN(C)C)c(OC(=O)CN(C)C)c1)[C@@H](C)Cc1ccc(OC(=O)CN(C)C)c(OC(=O)CN(C)C)c1` [G4N, meso-1,4-bis[3,4-(dimethylaminoacetoxy)phenyl]-(2R,3S)dimethylbutane], in the data set on HSV-2 (0.1 mM), the average score is recorded as 0.5. For the same molecule, the infection with HSV-2 (0.1 mM) is reported as around 12.5 % infection. In addition, the animals infected in the data set on HSV-2 (0.1 mM, 10 mice per group, day 3 vaginal lavage) is reported as 1 out of 10; with HSV-2 (10 mM, 10 mice per group) it was “no infections detected”; with HSV-2 (100 mM), “no infections detected”. Also, in data set [2], the “efficacy against acyclovir-resistant strains” value is on record as “no cross-resistance”. Moreover, the entries for the “response to treatment (visual assessment)” value with HSV-1 (5 μM), in the data set on HSV-1 (10 μM) and with HSV-1 (150 μM) were “semi-effective”, “more effective” and “extremely effective”, respectively. Further, in the data set on HSV-1 (guinea pig, in vivo), the “HSV-1 induced cutaneous lesion formation and viral shedding” value is on record as “effectively inhibited”. Further, in [8], the “apparent equilibrium binding constant (Kapp)” value came to 3e+06 M⁻¹. Further, the pIC50 with HIV-1RTMF (H9 cells, p24 assay after 8 days, for the combination, this concentration of each drug, read-out: IC50) is 4.74. Further, in data set [9] (highest soluble concentrations (150 mM)), the “toxicity or dermal irritation” value is given as “no evidence of toxicity or dermal irritation”. The toxicity entry in data set [9] (topical application for six days, up to 50 mM) is recorded as “no evidence of toxicity”.

Regarding acetylated Tieghemelin [oAc-Gen-1], the IC90 with HIV-1 [10] was around 10 µM. The “HIV-1 entry and infection in CD4+ cells” value with HIV-1 [11] (preincubation of drug with CD4+ cells) was “did not prevent HIV-1 entry and infection”. Also, the “infectivity of HIV-1” value with HIV-1 [11] (preincubation of drug with HIV-1 virus) is on record as “totally inactivated the infectivity”.

For the origin of these results see patent US9259433B2, “Synergistic antiviral compositions comprising a viral attachment inhibitor, an integration inhibitor, and a proviral transcription inhibitor, and their use” (priority 2007, dated 2016).
